pIC50: −log10 of the molar value.
Key:
Type in all cases: biochemical
SimC7 [1] = molecular target: T1, SimC7 (Streptomyces antibioticus, UniProt G9VYV4); assay: HPLC-UV ketoreductase assay ([…] NAD(P)H)
T1 construct: N-terminally His-tagged SimC7
T1 sequence (G9VYV4 1-284): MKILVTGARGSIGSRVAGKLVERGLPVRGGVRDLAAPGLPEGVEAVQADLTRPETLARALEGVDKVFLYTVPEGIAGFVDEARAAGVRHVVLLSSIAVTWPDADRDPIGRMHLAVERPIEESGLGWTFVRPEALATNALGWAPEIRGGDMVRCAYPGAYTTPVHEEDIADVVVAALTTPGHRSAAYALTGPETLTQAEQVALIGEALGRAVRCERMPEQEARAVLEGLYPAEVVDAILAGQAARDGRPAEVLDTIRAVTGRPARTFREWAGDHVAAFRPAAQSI

[2] = molecular target: T2, DNA gyrase subunit A (GyrA) (Escherichia coli, UniProt P0AES4); assay: DNA gyrase inhibition (supercoiling) assay; design: DNA gyrase; with GyrB
Target sequence in this assay (P0AES4 2-875): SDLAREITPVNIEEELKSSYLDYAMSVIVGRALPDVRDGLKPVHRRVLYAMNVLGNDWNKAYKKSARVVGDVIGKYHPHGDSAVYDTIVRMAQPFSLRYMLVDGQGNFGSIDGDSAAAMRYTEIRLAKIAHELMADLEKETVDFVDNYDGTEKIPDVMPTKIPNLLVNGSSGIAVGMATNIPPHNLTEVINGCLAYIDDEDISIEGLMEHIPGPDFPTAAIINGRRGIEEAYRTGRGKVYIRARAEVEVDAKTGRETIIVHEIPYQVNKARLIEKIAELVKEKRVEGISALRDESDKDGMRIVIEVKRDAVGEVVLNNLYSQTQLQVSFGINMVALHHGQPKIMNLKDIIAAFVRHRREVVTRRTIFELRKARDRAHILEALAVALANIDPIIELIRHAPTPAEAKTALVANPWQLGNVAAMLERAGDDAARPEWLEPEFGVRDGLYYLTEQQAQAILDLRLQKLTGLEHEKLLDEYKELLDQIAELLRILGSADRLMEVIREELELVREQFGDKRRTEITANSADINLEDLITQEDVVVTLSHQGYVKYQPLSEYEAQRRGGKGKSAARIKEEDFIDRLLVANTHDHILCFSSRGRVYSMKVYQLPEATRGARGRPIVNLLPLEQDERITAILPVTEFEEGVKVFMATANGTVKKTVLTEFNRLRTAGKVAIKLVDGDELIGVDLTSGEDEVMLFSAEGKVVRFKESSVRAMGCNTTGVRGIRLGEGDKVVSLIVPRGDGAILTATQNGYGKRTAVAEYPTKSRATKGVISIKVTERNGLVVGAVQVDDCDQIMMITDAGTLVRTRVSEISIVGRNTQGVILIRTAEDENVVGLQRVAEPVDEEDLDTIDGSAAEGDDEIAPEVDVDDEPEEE

SimC7 [3] = molecular target: T1, SimC7; assay: HPLC-UV ketoreductase assay; also oxidised as substrate in the reverse reaction
[4] = molecular target: T2, DNA gyrase subunit A (GyrA); assay: SPR to GyrA N-terminal domain (data not shown); DNA gyrase supercoiling inhibition; design: GyrA N-terminal domain (SPR); DNA gyrase (supercoiling); with GyrB (supercoiling assay)
From the text: SPR to GyrA N-terminal domain (data not shown); DNA gyrase supercoiling inhibition on DNA gyrase subunit A (GyrA) | SD8 bound to the GyrA N-terminal domain with a similar affinity to that reported previously
Target sequence in this assay (P0AES4 2-523): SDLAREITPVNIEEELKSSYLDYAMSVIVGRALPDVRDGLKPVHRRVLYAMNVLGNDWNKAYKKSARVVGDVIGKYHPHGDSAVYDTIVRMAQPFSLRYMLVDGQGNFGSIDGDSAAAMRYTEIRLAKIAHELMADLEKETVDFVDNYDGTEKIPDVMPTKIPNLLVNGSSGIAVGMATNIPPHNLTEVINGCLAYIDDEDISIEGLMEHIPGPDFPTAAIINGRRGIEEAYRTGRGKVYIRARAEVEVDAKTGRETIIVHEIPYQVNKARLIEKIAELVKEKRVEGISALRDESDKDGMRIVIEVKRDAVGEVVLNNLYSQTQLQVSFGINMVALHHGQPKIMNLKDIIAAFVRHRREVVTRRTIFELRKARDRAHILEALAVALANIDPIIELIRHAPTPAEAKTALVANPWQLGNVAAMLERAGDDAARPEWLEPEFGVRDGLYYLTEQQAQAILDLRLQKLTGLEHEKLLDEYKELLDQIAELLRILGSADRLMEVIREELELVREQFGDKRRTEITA

[5] = molecular target: T2, DNA gyrase subunit A (GyrA); assay: DNA gyrase supercoiling inhibition; SPR showed only weak, non-specific binding to GyrA; design: DNA gyrase; with GyrB
Target sequence in this assay (P0AES4 2-875): as the sequence (P0AES4 2-875) above

With `NC(=O)C1=CN([C@@H]2O[C@H](COP(=O)(O)OP(=O)(O)OC[C@H]3O[C@@H](n4cnc5c(N)ncnc54)[C@H](O)[C@@H]3O)[C@@H](O)[C@H]2O)C=CC1` [NADH] the “HPLC-UV ketoreductase assay (0.3 mM NAD(P)H)” value (SimC7 [1]) was “SimC7 was able to use NADH or NADPH for the reduction (Fig. 6b)”.
`NC(=O)C1=CN([C@@H]2O[C@H](COP(=O)(O)OP(=O)(O)OC[C@H]3O[C@@H](n4cnc5c(N)ncnc54)[C@H](OP(=O)(O)O)[C@@H]3O)[C@@H](O)[C@H]2O)C=CC1` [NADPH] was tested, and the “HPLC-UV ketoreductase assay (0.3 mM NAD(P)H)” value (SimC7 [1]) was “SimC7 was able to use NADH or NADPH for the reduction (Fig. 6b) but showed a preference for NADPH”.
For `COC(=O)/C=C/C=C/C=C/C=C/C(=O)Nc1c(O)c2ccc(O)c(Cl)c2oc1=O` [MGD8N2A], the pIC50 [2] was 4.60.
With `CC(=O)O[C@@H]1[C@@H](C)O[C@@H](c2ccc3c(c2O)[C@H](O)[C@]24O[C@@]2(C3=O)[C@@]2(O)C(=O)C=C(C)C[C@@]2(O)C[C@@H]4O)C[C@H]1OC(=O)/C=C/C=C/C=C/C=C/C(=O)Nc1c(O)c2ccc(O)c(Cl)c2oc1=O` [compound 2, simocyclinone D8] the “HPLC-UV ketoreductase assay; also oxidised as substrate in the reverse reaction” value (SimC7 [3]) was “It was also possible to assay the reaction in the reverse direction, following the oxidation of SD8 to 7-oxo-SD8 by SimC7”.
`CC(=O)O[C@@H]1[C@@H](C)O[C@@H](c2ccc3c(c2O)[C@H](O)[C@]24O[C@@]2(C3=O)[C@@]2(O)C(=O)C=C(C)C[C@@]2(O)C[C@@H]4O)C[C@H]1OC(=O)/C=C/C=C/C=C/C=C/C(=O)Nc1c(O)c2ccc(O)c(Cl)c2oc1=O` [SD8, simocyclinone D8] gave a pIC50 [4] of 6.30 to 7.00.
Work on `CC(=O)O[C@@H]1[C@@H](C)O[C@@H](c2ccc3c(c2O)C(=O)[C@]24O[C@@]2(C3=O)[C@@]2(O)C(=O)C=C(C)C[C@@]2(O)C[C@@H]4O)C[C@H]1OC(=O)/C=C/C=C/C=C/C=C/C(=O)Nc1c(O)c2ccc(O)c(Cl)c2oc1=O` [7-oxo-SD8] yielded a pIC50 [5] of 4.00 to 4.30.
